For 1 compound, IC50 results are on record in article PMC6443962, “Anti-nociceptive and Anti-inflammatory Activities of Asparacosin A Involve Selective Cyclooxygenase 2 and Inflammatory Cytokines Inhibition: An in-vitro, in-vivo, and in-silico Approach” (Frontiers in Immunology, 2019).

Test [1] has as its target T1, COX-2 (cyclooxygenase 2, human recombinant) (Homo sapiens, UniProt P35354).
T1 construct: gene PTGS2
T1 sequence (P35354 18-604): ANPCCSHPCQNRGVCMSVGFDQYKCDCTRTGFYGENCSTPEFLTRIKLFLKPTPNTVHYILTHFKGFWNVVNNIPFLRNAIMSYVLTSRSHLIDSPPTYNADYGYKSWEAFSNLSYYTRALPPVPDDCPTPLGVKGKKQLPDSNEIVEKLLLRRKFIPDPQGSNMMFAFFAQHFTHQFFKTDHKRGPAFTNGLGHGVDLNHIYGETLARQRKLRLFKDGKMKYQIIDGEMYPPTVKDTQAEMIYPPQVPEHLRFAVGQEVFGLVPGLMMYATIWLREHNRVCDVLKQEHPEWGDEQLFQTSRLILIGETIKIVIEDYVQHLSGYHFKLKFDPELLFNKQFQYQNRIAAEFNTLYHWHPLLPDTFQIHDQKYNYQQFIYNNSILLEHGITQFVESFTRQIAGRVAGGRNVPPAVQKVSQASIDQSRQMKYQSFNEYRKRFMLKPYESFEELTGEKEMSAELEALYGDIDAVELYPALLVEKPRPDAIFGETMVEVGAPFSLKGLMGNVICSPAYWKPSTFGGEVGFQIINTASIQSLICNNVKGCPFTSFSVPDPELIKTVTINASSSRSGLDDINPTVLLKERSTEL
The test can be described thus: colorimetric COX inhibitor screening assay (Cayman kit […]). The class given is biochemical.

The target of test [2] is T2, COX-1 (cyclooxygenase 1, ovine) (Ovis aries, UniProt P05979).
T2 construct: gene PTGS1
T2 sequence (P05979 25-600): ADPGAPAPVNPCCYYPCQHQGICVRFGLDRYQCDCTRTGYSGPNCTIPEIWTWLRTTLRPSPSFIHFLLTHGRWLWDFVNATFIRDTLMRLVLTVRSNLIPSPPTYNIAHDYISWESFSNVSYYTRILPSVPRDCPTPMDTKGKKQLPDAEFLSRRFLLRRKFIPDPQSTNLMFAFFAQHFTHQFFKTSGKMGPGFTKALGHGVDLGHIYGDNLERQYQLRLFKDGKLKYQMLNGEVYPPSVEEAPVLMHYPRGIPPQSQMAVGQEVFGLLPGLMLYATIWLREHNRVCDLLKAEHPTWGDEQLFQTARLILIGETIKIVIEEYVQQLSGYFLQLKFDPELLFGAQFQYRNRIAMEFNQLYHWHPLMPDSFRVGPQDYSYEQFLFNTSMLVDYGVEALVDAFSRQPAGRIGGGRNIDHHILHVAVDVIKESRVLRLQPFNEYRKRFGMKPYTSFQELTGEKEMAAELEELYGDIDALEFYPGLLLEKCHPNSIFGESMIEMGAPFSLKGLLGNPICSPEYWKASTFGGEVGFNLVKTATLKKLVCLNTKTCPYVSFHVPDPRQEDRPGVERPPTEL
The test is described as above. It is filed as biochemical.

Each structure is given as a SMILES string.

For the compound `C[C@@H]1CC[C@@]2(OC1)O[C@H]1C[C@H]3[C@@H]4CCC5=CC(=O)CC[C@]5(C)[C@H]4C[C@@H](O)[C@]3(C)[C@@]1(O)[C@@H]2C` [Asparacosin A], the IC50 (usually the concentration that inhibits the measured activity by half) in test [1] was 0.6 µM; in test [2] it was 24.2 µM.
